Test results as given in PMC9524145, “Open channel block of Kv1.5 channels by HMQ1611” (Frontiers in Pharmacology, 2022).

Tests used:
Type in all cases: cell-based
[1] = biological target: T1, hKv1.5 T479A mutant channel (Homo sapiens, UniProt P22460, T479A); experiment: whole-cell patch-clamp of T479A mutant hKv1.5 current in CHO cells; conditions: 5 μM HMQ1611, late current at +30 mV, n = 8, p < 0.01 vs. WT
T1 construct: Full-length cDNA encoding wild-type (WT) hKv1.5 (KCNA5) subcloned into the pcDNA3.1 expression vector; expressed in transfected cells; host or cells: CHO cells, transient transfection (pcDNA3.1), GFP cDNA co-transfected as a separate marker
Excerpt: (§1) Full-length cDNA encoding wild-type (WT) hKv1.5 (KCNA5) subcloned into the pcDNA3.1 expression vector was kindly provided by Dr. David Fedida (University of British Columbia, Canada). All hKv1.5 mutants (T462C, H463C, T479A, T480A, R487V, A501V, I502A, V505A, I508A, A509G, L510A, V512A, and V516A cDNAs) were constructed using a QuickChange II XL site-directed mutagenesis kit according to the manufacturer’s instructions (Stratagene, La Jolla, CA, USA) and subcloned into the pcDNA3.1. All mutants were fully sequenced (ABI3100x; Applied Biosystems, Foster City, CA, USA) to ensure fidelity.
(§2) WT or mutant hKv1.5 cDNA was transiently transfected into CHO cells together with green fluorescent protein (GFP) cDNA (0.5 μg WT or mutant hKv1.5 + 0.5 μg GFP) using Lipofectamine (Invitrogen Life Technologies, Carlsbad, CA, USA). […]
(§3) Kv1.5 currents were recorded using an EPC-8 patch-clamp amplifier (HEKA, Lambrecht, Germany) at 25°C. […]
(§4) The concentration–response curve for inhibition of hKv1.5 current by HMQ1611 was drawn by a least-squares fit of the Hill equation: %Control=1/(1+(IC50/[D])^nH), (2) where % Control represents the current in presence of the drug normalized with reference to the control amplitude (expressed as a percentage), IC50 is the concentration of HMQ1611 causing a half-maximal inhibition, nH is the Hill coefficient, and [D] is the drug concentration. […]

[2] = biological target: T2, hKv1.5 V512A mutant channel (Homo sapiens, UniProt P22460, V512A); experiment: whole-cell patch-clamp of V512A mutant hKv1.5 current in CHO cells; conditions: 5 μM HMQ1611, late current at +30 mV, n = 6, p < 0.01 vs. WT
T2 construct: Full-length cDNA encoding wild-type (WT) hKv1.5 (KCNA5) subcloned into the pcDNA3.1 expression vector; expressed in transfected cells; host or cells: CHO cells, transient transfection (pcDNA3.1), GFP cDNA co-transfected as a separate marker
Excerpt: as §1, §2, §3, §4

[3] = biological target: T3, hKv1.5 I508A mutant channel (Homo sapiens, UniProt P22460, I508A); experiment: whole-cell patch-clamp of I508A mutant hKv1.5 current in CHO cells
T3 construct: Full-length cDNA encoding wild-type (WT) hKv1.5 (KCNA5) subcloned into the pcDNA3.1 expression vector; expressed in transfected cells; host or cells: CHO cells, transient transfection (pcDNA3.1), GFP cDNA co-transfected as a separate marker
Excerpt: as §1
(§5) WT or mutant hKv1.5 cDNA was transiently transfected into CHO cells together with green fluorescent protein (GFP) cDNA (0.5 μg WT or mutant hKv1.5 + 0.5 μg GFP) using Lipofectamine (Invitrogen Life Technologies, Carlsbad, CA, USA). Patch-clamp experiments were conducted on GFP-positive cells 48 h after transfection.
(§6) Kv1.5 currents were recorded using an EPC-8 patch-clamp amplifier (HEKA, Lambrecht, Germany) at 25°C. The data were low-pass filtered at 1 kHz, acquired at 5 kHz through an LIH-1600 analogue-to-digital converter (HEKA), and stored on a hard disc drive using Pulse/PulseFit software (HEKA). For experiments to measure the activation time course of hKv1.5 currents, the data were low-pass filtered at 10 kHz and sampled at 50 kHz. […] Cells attached to glass cover slips were transferred to a recording chamber (0.5 ml in volume) mounted on the stage of an inverted microscope (ECLIPSE TE2000-U, Nikon, Tokyo, Japan) and perfused continuously with Tyrode solution at a flow rate of 1 ml/min.
as §4

[4] = biological target: T4, hKv1.5 V505A mutant channel (Homo sapiens, UniProt P22460, V505A); experiment: whole-cell patch-clamp of V505A mutant hKv1.5 current in CHO cells
T4 construct: Full-length cDNA encoding wild-type (WT) hKv1.5 (KCNA5) subcloned into the pcDNA3.1 expression vector; expressed in transfected cells; host or cells: CHO cells, transient transfection (pcDNA3.1), GFP cDNA co-transfected as a separate marker
Excerpt: as §1, §5, §6, §4

[5] = biological target: T5, hKv1.5 T480A mutant channel (Homo sapiens, UniProt P22460, T480A); experiment: whole-cell patch-clamp of T480A mutant hKv1.5 current in CHO cells
T5 construct: Full-length cDNA encoding wild-type (WT) hKv1.5 (KCNA5) subcloned into the pcDNA3.1 expression vector; expressed in transfected cells; host or cells: CHO cells, transient transfection (pcDNA3.1), GFP cDNA co-transfected as a separate marker
Excerpt: as §1, §2, §3, §4

[6] = biological target: T6, hKv1.5 L510A mutant channel (Homo sapiens, UniProt P22460, L510A); experiment: whole-cell patch-clamp of L510A mutant hKv1.5 current in CHO cells; conditions: 5 μM HMQ1611, late current at +30 mV, n = 6, p < 0.01 vs. WT
T6 construct: Full-length cDNA encoding wild-type (WT) hKv1.5 (KCNA5) subcloned into the pcDNA3.1 expression vector; expressed in transfected cells; host or cells: CHO cells, transient transfection (pcDNA3.1), GFP cDNA co-transfected as a separate marker
Excerpt: as §1, §2, §3, §4

[7] = biological target: T7, hKv1.5 V516A mutant channel (Homo sapiens, UniProt P22460, V516A); experiment: whole-cell patch-clamp of V516A mutant hKv1.5 current in CHO cells
T7 construct: Full-length cDNA encoding wild-type (WT) hKv1.5 (KCNA5) subcloned into the pcDNA3.1 expression vector; expressed in transfected cells; host or cells: CHO cells, transient transfection (pcDNA3.1), GFP cDNA co-transfected as a separate marker
Excerpt: as §1, §2, §3, §4

[8] = biological target: T8, wild-type (WT) hKv1.5 (KCNA5) channel (Homo sapiens, UniProt P22460); experiment: whole-cell patch-clamp of wild-type hKv1.5 current in transfected CHO cells
T8 construct: Full-length cDNA encoding wild-type (WT) hKv1.5 (KCNA5) subcloned into the pcDNA3.1 expression vector; expressed in transfected cells; host or cells: CHO cells, transient transfection (pcDNA3.1), GFP cDNA co-transfected as a separate marker
Method: Chinese hamster ovary (CHO) cells donated by Dr. Takeru Makiyama (Kyoto University Graduate School of Medicine, Japan) were cultured in Dulbecco’s modified Eagle’s medium/Ham’s F-12 (DMEM/F-12) medium supplemented with 10% fetal bovine serum and antibiotics (100 IU/ml penicillin and 100 μg/ml streptomycin) in a humidified atmosphere with 5% CO2 and 95% air at 37°C. Cells were passaged every 3–4 days with trypsin–EDTA, and a portion of the cells was seeded onto glass cover slips (5 × 3 mm^2) for subsequent transfection.
as §1, §5, §6
hKv1.5 channel currents were elicited by applying 300 ms depolarizing steps from a holding potential of -80 mV to various levels of -50 mV to +50 mV in 10 mV steps with a return potential of -40 mV, and each stimulus interval was longer than 10 s. Voltage-dependent activation of hKv1.5 channels was assessed by fitting the normalized I–V relations of the tail currents to a Boltzmann equation: Itail=1/(1+exp((V1/2−Vm)/k)), (1) where I tail is the tail current amplitude normalized with reference to the maximum value measured at +50 mV, V 1/2 is the voltage at half-maximal activation, V m is the test potential, and k is the slope factor.
The concentration–response curve for inhibition of hKv1.5 current by HMQ1611 was drawn by a least-squares fit of the Hill equation: %Control=1/(1+(IC50/[D])^nH), (2) where % Control represents the current in presence of the drug normalized with reference to the control amplitude (expressed as a percentage), IC50 is the concentration of HMQ1611 causing a half-maximal inhibition, nH is the Hill coefficient, and [D] is the drug concentration.
The apparent rate constants for binding (k +1) and unbinding (k -1) were obtained by fitting the equation: τD=1/(k+1[D]+k−1), (3) where τD is the drug-induced time constant, which was calculated from single exponential fits to the traces of current decay during the depolarizing step to +30 mV.
The apparent dissociation constant K D is expressed as kD=k−1/k+1. (4)
Deactivation kinetics of hKv1.5 were determined by fitting a single exponential function to the tail current trace (obtained by depolarizing a cell to +30 mV for 300 ms, followed by a repolarizing pulse to -40 mV).
Normal Tyrode solution contained 140 mM NaCl, 5.4 mM KCl, 1.8 mM CaCl2, 0.5 mM MgCl2, 0.33 mM NaH2PO4, 5.5 mM glucose, and 5.0 mM HEPES (pH adjusted to 7.4 with NaOH). […]

[9] = from τD of current decay at +30 mV vs drug concentration

T3 sequence (P22460 whole entry I508A): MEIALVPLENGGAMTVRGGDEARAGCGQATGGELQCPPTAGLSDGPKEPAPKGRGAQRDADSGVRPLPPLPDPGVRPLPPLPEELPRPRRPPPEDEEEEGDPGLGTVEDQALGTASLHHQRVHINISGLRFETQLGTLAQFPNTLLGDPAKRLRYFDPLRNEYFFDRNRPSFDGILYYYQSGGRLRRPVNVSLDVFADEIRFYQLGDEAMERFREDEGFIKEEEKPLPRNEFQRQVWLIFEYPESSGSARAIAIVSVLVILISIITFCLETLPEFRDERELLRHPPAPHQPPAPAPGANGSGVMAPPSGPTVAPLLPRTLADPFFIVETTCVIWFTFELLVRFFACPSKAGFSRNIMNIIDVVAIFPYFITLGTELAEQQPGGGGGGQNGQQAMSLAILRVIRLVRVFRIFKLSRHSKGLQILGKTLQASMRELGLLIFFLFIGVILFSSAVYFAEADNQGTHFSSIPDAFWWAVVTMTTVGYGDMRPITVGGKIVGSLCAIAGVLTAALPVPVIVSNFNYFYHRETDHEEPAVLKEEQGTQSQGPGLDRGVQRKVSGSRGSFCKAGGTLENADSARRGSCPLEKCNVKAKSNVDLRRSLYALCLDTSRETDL
T4 sequence (P22460 whole entry V505A): as the sequence (P22460 whole entry I508A) above, with V505A, A508I counted along it
T8 sequence (P22460 whole entry): as the sequence (P22460 whole entry I508A) above, with A508I counted along it
T7 sequence (P22460 whole entry V516A): as the sequence (P22460 whole entry I508A) above, with A508I, V516A counted along it
T5 sequence (P22460 whole entry T480A): as the sequence (P22460 whole entry I508A) above, with T480A, A508I counted along it
T1 sequence (P22460 whole entry T479A): as the sequence (P22460 whole entry I508A) above, with T479A, A508I counted along it
T2 sequence (P22460 whole entry V512A): as the sequence (P22460 whole entry I508A) above, with A508I, V512A counted along it
T6 sequence (P22460 whole entry L510A): as the sequence (P22460 whole entry I508A) above, with A508I, L510A counted along it

inhibition at 5 µM [1]: 51.1 ± 4.99%
inhibition at 5 µM [2]: 47.2 ± 3.86%
inhibition at 5 µM ([3]; CHO, I508A, 5 μM HMQ1611, late current at +30 mV, n = 7, p < 0.01 vs. WT): 16.2 ± 2.09%
fold decrease in blocking potency compared with IC50 of WT channel ([3]; I508A vs WT): 5 fold
IC50 ([3]; I508A, Hill fit, n = 7): 10.5 ± 0.41 µM
inhibition at 5 µM ([4]; CHO, V505A, 5 μM HMQ1611, late current at +30 mV, n = 7, p < 0.01 vs. WT): 44 ± 4.4%
fold decrease in blocking potency compared with IC50 of WT channel ([4]; V505A vs WT): 3 fold
IC50 ([4]; V505A, Hill fit, n = 7): 6.44 ± 0.18 µM
inhibition at 5 µM ([5]; CHO, T480A, 5 μM HMQ1611, late current at +30 mV, n = 7, p < 0.01 vs. WT): 15.3 ± 2.5%
fold decrease in blocking potency compared with IC50 of WT channel ([5]; T480A vs WT): 7 fold
inhibition at 5 µM [6]: 11.2 ± 2.24%
inhibition at 5 µM ([7]; CHO, V516A, 5 μM HMQ1611, late current at +30 mV, n = 6, p < 0.01 vs. WT): 44.6 ± 5.48%
fold decrease in blocking potency compared with IC50 of WT channel ([7]; V516A vs WT): 4 fold
time to start of inhibition on exposure ([8]; 5 μM HMQ1611): 5 to 10 s
time to steady state inhibition ([8]; 5 μM HMQ1611): ≤ 3 min
peak current amplitude at the first depolarizing step ([8]; 5 μM HMQ1611, 1 Hz train, control 6.11 ± 0.99 nA, n = 7, p > 0.05): 5.97 ± 0.98 nA
decrease of peak amplitude of hKv1.5 current at the 20th pulse vs first pulse ([8]; 5 μM HMQ1611, 1 Hz, control 18.29 ± 2.20%, n = 7): 46.57 ± 4.19%
peak current amplitude at the first depolarizing step ([8]; 5 μM HMQ1611, 2 Hz train, control 5.82 ± 1.14 nA, n = 6, p > 0.05): 5.67 ± 0.99 nA
decrease of peak amplitude of hKv1.5 current at the 20th pulse vs first pulse ([8]; 5 μM HMQ1611, 2 Hz, control 32.73 ± 1.74%, n = 6): 66.47 ± 2.38%
steady state level of inhibition of hKv1.5 current ([8]; 5 μM HMQ1611, representative time course, end of 300 ms step to +30 mV, within 3 min): approximately 86 % inhibition
activation time constant ([8]; 5 μM HMQ1611, step to +30 mV, control 1.50 ± 0.25 ms, n = 7, p > 0.05): 1.47 ± 0.18 ms
inhibition at 5 µM ([8]; CHO, WT, 5 μM HMQ1611, late current at end of 300 ms step to +30 mV, n = 7): 83.9 ± 4.06%
IC50 ([8]; WT, late current at end of 300 ms depolarizing step to +30 mV, CHO cells, Hill fit, n = 7, read-out: IC50 for inhibition of hKv1.5 current): 2.07 ± 0.21 µM
recovery of hKv1.5 current after washout ([8]; after 5 μM HMQ1611, within 10 min after washout with normal Tyrode solution): 94.64 % of the control value
Kd ([8]; apparent dissociation constant, +30 mV, read-out: KD value derived by (k-1)/(k+1)): 4.48 µM
slope factor k of Boltzmann activation fit ([8]; during exposure to 5 μM HMQ1611, control 14.09, 6 cells, p < 0.01 vs. control): 1.34
V1/2 (voltage at half-maximal activation, tail currents) ([8]; during exposure to 5 μM HMQ1611, control -0.76 mV, 6 cells, p < 0.01 vs. control): -29.9 mV
apparent binding rate constant (k+1) [8, 9]: 6.65e+06 M⁻¹ s⁻¹
apparent unbinding rate constant (k-1) [8, 9]: 29.9 s⁻¹
deactivation time constant ([8]; in presence of 5 μM HMQ1611, tail current at -40 mV after +30 mV, control 14.8 ± 1.4 ms, n = 10, p > 0.05): 13.1 ± 2.3 ms
effect of intracellular dialysis on Kv1.5 currents ([8]; intracellular dialysis of cells with 5 μM HMQ1611 for 4 min after whole-cell configuration): did not change the Kv1.5 currents
SMILES: CNC(=O)c1ccc(OC)c(OCC(=O)Nc2ccc(F)c(Cl)c2)c1-c1c(C(=O)NC)ccc(OC)c1OCC(=O)Nc1ccc(F)c(Cl)c1 [HMQ1611]
